US20140080824A1, “STRUCTURE-GUIDED IDENTIFICATION OF BINDING INTERACTIONS OF HUMAN LAMININ RECEPTOR PRECURSOR WITH LAMININ AND IDENTIFICATION OF COMPOUNDS THAT AFFECT BINDING” (NEW YORK UNIVERSITY, priority 2010, published 2014)
Entries after “also recorded” stand apart in the source; their conditions may differ.

What was measured:
[1] = system: HT1080 cells; test: HT1080 cell migration towards 10% FBS; format: cell-based, human
Method: In order to understand how this in vitro result translated into the cellular context, the ability of cells to migrate toward growth medium was tested in the presence and absence of the LamR inhibitors of the present invention. Since LamR on the cell surface serves the purpose of binding extracellular matrix laminin and facilitates migration and metastasis, it was expected that as inhibitors of cell surface LamR, the compounds of the present invention would reduce the migratory capability of cells. […] The migration of HT1080 cells was reduced to a level equivalent to the no migration control of no serum (No FBS).
HT1080 cells were tested for their ability to migrate toward normal growth media supplemented with 10% FBS or to 10 μg/mL purified laminin (Invitrogen) using the CytoSelect™ 24-well cell migration assay (8 μm, Colorimetric Format) (Cell Biolabs, Inc.). HT1080 cells were obtained from the American Type Culture Collection (Manassas, Va.). HT1080 cells were maintained in Dulbecco's modified Eagle's medium—[…] with 10% FBS. […] After agitation for 10 min at room temperature in extraction solution, 100 μl of each sample was transferred to an ELISA plate and read at 630 nm. […] Results were plotted using GraphPad Prism software, and statistical significance was calculated using a standard Student's t-test.

[2] = target: LamR (Homo sapiens, UniProt P08865); test: Small-molecule inhibition of recombinant LamR binding to laminin coated surface; settings: for Reduction of LamR binding to laminin relative to the vehicle control (DMSO alone): purified recombinant LamR pre-incubated with small molecule, dose-dependent (FIG. 8a); for Effect on LamR binding to laminin (in words): purified recombinant LamR, FIG. 8a
Method: Compounds that interact with this described pocket, MRT (LRI) and MRF (LRI-F), display the properties of LamR inhibitors and are preferred for use in the methods of the present application. […] Binding was not reduced by several negative control compounds (Negative and DBP).
(§1) Wild type and mutant LamR binding affinity for laminin were tested in vitro. Clear polystyrene ELISA 96-well microplates, pre-coated with murine laminin (NEBiolabs), were blocked for 1 hour at 37° C. with blocking buffer (2% FCS, 1 mg/ml BSA, 0.1% sodium azide in PBS). Wells were incubated with increasing concentrations of purified wild type or mutant LamR for 1 h at 37° C. If a small molecule's effects on laminin binding were to be determined, the small molecule was pre-incubated with purified LamR for 15 minutes at 37° C. prior to addition of the mixture to the pre-coated plate. Each well was washed three times with wash buffer (0.5% Tween in PBS). Penta-His HRP conjugate (1:500) (Qiagen) was incubated for 2 h at RT and wells were washed three times with wash buffer. Substrate solution was added and incubated for approximately 10 minutes before reading the fluorescent absorbance detected at 490 nm on an ELISA plate reader (ELX800, Biotek Instruments, Inc.). Controls for buffer alone and binding of a nonspecific protein, A. fulgidus S2p, were also tested. Experiments were performed in triplicate. A binding curve and Kd were generated for wild type and mutant LamR using Prism software. The Kd was calculated using a one-site binding hyperbola and the equation Y=Bmax×X/(Kd+X). Each group was tested in triplicate and binding affinity was determined by normalizing to background fluorescence.

[3] = system: 3T3, HT1080 and C8161 cell lines; test: Cellular translation by 35S-methionine pulse-chase radiolabeling; format: cell-based; settings: 10 μM, FIG. 9a
Method: As expected for compounds with these properties, the LamR inhibitors of the invention attenuated the translation process.
To label newly synthesized proteins, cells were pulsed with 20 μCi/mL ^35S-methionine radiolabeled amino acid (PerkinElmer) in standard growth media lacking methionine (MP Biomedicals) for 2 hours at 37° C. Following the pulse, normal growth medium was added for the chase to restore normal conditions for 90 minutes. MPER mammalian protein extraction reagent (Pierce) was used to lyse cells and collect protein. To quantity the amount of newly synthesized protein containing the radioisotope, 20 μg total protein was precipitated with 10% TCA for 20 minutes at 4° C. Precipitant was vacuum filtered and washed on glass microfiber filters (Whatman) using 5% TCA followed by 95% ethanol. Filters were dried under a heat lamp prior to addition of 3 mL scintillation fluid to count radioisotope incorporation by events on a Beckman LS3801 scintillation counter (Beckman). For measuring the effects small molecules had on the translation, cells in culture were pre-treated for 18 hours with 1-10 μM of small molecule prior to pulse/chase. As a control for arresting translation, 50 μg/mL cycloheximide was added 3 hours prior to assessment.

[4] = system: HT1080 cells; test: Growth inhibition of HT1080 cells; format: cell-based, human; settings: FIG. 9b
Source text: FIGS. 9a and 9b—Targeting LamR ribosomal and growth functions with inhibitors. (a) Inhibition of cellular translation in several cell lines by LamR inhibitor LRI-F (MRF/Face) by radiolabeled methionine pulse-chase. CHX, cycloheximide (b) Effects of treating HT1080 cells with LamR inhibitors. Dose dependent growth effects occur. *p-value <0.0001, n=3.
The analog compound LRI-F, an inhibitor of LamR, affected these functions.

[5] = system: HT1080 human fibrosarcoma cells; test: Experimental metastasis of luciferase expressing HT1080 cells in SCID mice; format: in vivo
Source text: In addition, LamR has been described to be a critical factor of tumor metastasis. Clinical uses of the LamR inhibitors disclosed herein include their use as anti-metastatic anti-tumor agents. In a manner similar to that observed for the above-described in vitro cellular migration assays, compound LRI-F has such anti-metastatic properties in a murine model of experimental metastasis. […] Tumor cells were imaged via their expression of an exogenous firefly luciferase gene using the IVIS in vivo imaging system (Caliper/Xenogen).
Cells were washed once in PBS and re-suspended to a concentration of 1×10^6 cells/mL in PBS. 0.5 cc of the cell suspension (500,000 cells) was injected intravenously via the tail vein into SCID mice. Tumor implantation was monitored with IVIS Spectrum imaging technology (Caliper LS/Xenogen) following intra-peritoneal injection of luciferin substrate. Briefly, a camera is used to detect bioluminescent signal emitted from luciferase expressing cells. Mice are injected i.p. with 0.3 cc of 15 mg/mL beetle luciferin substrate (Promega) in PBS. Mice are anesthetized with isofluoran (2%)/oxygen mixture prior to imaging 5 minutes post substrate injection. Light is collected over a 1 minute imaging period at high binning to detect lung signal. Living Image Software version 3.0 (Caliper LS) is used to quantify and represent light signal.

[6] = system: laminin; test: In vitro binding affinity of wild type and mutant LamR for laminin (ELISA on laminin pre-coated plates); parameters: species or system murine; settings: immobilized laminin
Method: as §1, with “Penta-His HRP conjugate (1:500) (Qiagen) was incubated for 2 h at RT and wells were washed three times with wash buffer.” left out, “Controls for buffer alone and binding of a nonspecific protein, A. fulgidus S2p, were also tested. Experiments were performed in triplicate. A binding curve and Kd were generated for wild type and mutant LamR using Prism software.” left out
In total, 14 mutants were analyzed individually (Table 1, FIG. 1a). […] The purity of the proteins was monitored by SDS ? […] Purified recombinant LamR220 (greater than 95% purity) was incubated in serial dilution on pre-coated laminin plates, and binding was detected by anti-His HRP. […]

Molecule: C[C@@H]1C[C@@H]([C@H](O)CC2CC(=O)NC(=O)C2)C(=O)[C@@H](C)C1 [CHX, cycloheximide, reference compound]
- Migration of HT1080 cells to 10% serum after small molecule treatment ([1]; cells pre-treated 2 hours with 5-10 μM small molecule, CHX 50 μg/mL 3 hours, FIG. 8b): did not result in loss of migratory ability

Molecule: O=C(NCCO)c1ccc2nc3c4ccccc4c4ccccc4c3nc2c1 [MRT, N-(2-hydroxyethyl)dibenzo[a,c]phenazine-11-carboxamide]
- Reduction of LamR binding to laminin relative to the vehicle control (DMSO alone) [2]: approximately 50%
- Effect on LamR binding to laminin (in words) [2]: block recombinant LamR binding to purified laminin coated surface

Molecule: S=C(Nc1ccc2nc3c4ccccc4c4ccccc4c3nc2c1)N1CCOCC1 [MRF, N-dibenzo[a,c]phenazin-11-yl-4-morpholinecarbothioamide]
- Reduction of LamR binding to laminin relative to the vehicle control (DMSO alone) [2]: approximately 50%
- Effect on LamR binding to laminin (in words) [2]: block recombinant LamR binding to purified laminin coated surface
- Translation of newly synthesized proteins relative to untreated control [3]: dramatic reduction
- Growth effect in HT1080 cells [4]: growth inhibitory effects in HT1080 cells in a dose-dependent manner
- Tumor signal from the lungs ([5]; 0.42 mg/20 g injected subcutaneously once 2 hours post-injection of cells, FIG. 10c-d): decreased tumor signal from the lungs
- Ability of HT1080 cells to implant into the lungs after intravenous injection ([5]; cells pretreated with 10 μM before tail vein injection, SCID mice, FIG. 10a): marked decrease
- Survival of mice compared to cells pretreated with DMSO vehicle ([5]; cells pretreated with 10 μM, FIG. 10b): prolonged survival

Molecule: c1ccc2nc3c4ccccc4c4ccccc4c3nc2c1 [DBP, dibenzophenazine, reference compound]
- Effect on LamR binding to laminin (in words) [2]: not reduced

B1: A. fulgidus S2p: Archaeoglobus fulgidus S2 ribosomal protein, non-laminin binding ortholog of LamR (protein, UniProt O29132 1-197, looked up)
Small ribosomal subunit …: MMEKEYEYLVPPDDYLAAGVHIGTQIKTGDMKKFIFKVRQDGLYVLDIRKLDERIRVAAKFLSRYEPSKILLVAARQYAHKPVQMFSKVVGSDYIVGRFIPGTLTNPMLSEYREPEVVFVNDPAIDKQAVSEATAVGIPVVALCDSNNSSADVDLVIPTNNKGRRALAIVYWLLAREIAKIRGQDFTYSIEDFEAEL
- Laminin binding activity (in words) [6]: does not exhibit laminin-binding activity; also recorded: no binding
- Inhibition of cell migration towards 10% FBS by recombinant protein ([1]; recombinant protein 1 μM in lower reservoir, FIG. 3b): not inhibited
